Reference: paper PMC7288559 (ACS Omega, 2020)

Tests used:
[1] = test system: hepatocellular carcinoma cells Snu-398; format: cell-based; settings: lactate in supernatant
[2] = test system: pancreatic carcinoma cells MIA PaCa-2; format: cell-based; settings: lactate in supernatant
recombinant human LDHA = recombinant human LDHA (Homo sapiens, UniProt P00338); assay: LDHA enzymatic assay based on NADH cofactor consumption [NAD; format: biochemical; settings: in vitro, dose-dependent

Row | SMILES | Inhibition of lactate production in cells [1] | Inhibition of lactate production in cells [2] | Inhibition of lactate production by recombinant human LDHA (recombinant human LDHA)
1 | O=C(O)c1ccc(CN2C(=O)c3cccc(NC(=O)c4ccc(Cl)s4)c3C2=O)cc1 [Compound 3, 4-[(4-{[(5-chloro-2-thienyl)carbonyl]amino}-1,3-dioxo-1,3-dihydro-2H-isoindol-2-yl)methyl]benzoic acid] | neither 3 nor 7 showed inhibition | neither 3 nor 7 showed inhibition | completely inhibited
2 | O=C(Nc1cccc(NS(=O)(=O)c2ccc3oc4cc([N+](=O)[O-])ccc4c3c2)c1)C1(O)CC1 [Compound 7, 1-hydroxy-N-(3-{[(7-nitrodibenzo[b,d]furan-2-yl)sulfonyl]amino}phenyl)cyclopropanecarboxamide] | neither 3 nor 7 showed inhibition | neither 3 nor 7 showed inhibition | completely inhibited
